Read-outs that look alike come from different tables or passages of the source.
Key:
[1] = target: T1, fatty acyl CoA: cholesterol acyl transferase (ACAT) (Rattus norvegicus, UniProt O70536); assay: Inhibition of fatty acyl CoA:cholesterol acyl transferase (ACAT), rat adrenal enzyme; format: biochemical
T1 construct: The supernatant, containing the microsomal fraction, served as the source of the cholesterol-esterifying enzyme; from tissue; host or cells: rat adrenals, supernatant of 1,000 x g centrifugation containing the microsomal fraction
T1 sequence (O70536 1-545): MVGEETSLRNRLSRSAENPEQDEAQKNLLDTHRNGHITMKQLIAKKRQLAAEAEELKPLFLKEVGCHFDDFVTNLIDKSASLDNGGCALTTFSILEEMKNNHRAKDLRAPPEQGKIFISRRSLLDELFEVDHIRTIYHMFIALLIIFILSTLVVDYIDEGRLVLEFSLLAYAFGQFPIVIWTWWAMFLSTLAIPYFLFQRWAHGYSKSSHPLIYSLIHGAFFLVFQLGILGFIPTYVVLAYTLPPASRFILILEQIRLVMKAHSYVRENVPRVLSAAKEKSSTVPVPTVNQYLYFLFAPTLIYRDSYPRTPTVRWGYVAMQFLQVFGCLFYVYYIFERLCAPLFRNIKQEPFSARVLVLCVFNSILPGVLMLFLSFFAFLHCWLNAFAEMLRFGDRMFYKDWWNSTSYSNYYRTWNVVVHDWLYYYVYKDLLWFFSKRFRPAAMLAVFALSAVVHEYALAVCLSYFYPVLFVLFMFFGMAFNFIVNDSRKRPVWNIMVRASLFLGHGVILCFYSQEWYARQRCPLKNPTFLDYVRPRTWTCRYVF
Outline: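 Read-out was scintillation counting of [14C]cholesteryl ester, isolated by TLC, after 10 min at 37° C with [14C]oleoyl CoA. Beforehand, compound (final 5.2 μg/ml in single-concentration tests) was preincubated 10 min at 37° C with BSA and rat adrenal microsomal supernatant in pH 7.4 phosphate. Results given as percent inhibition versus control or IC50 over several concentrations.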

[2] = system: cholesterol absorption; assay: Inhibition of cholesterol absorption in rats fed 1% cholesterol:0.5% cholic acid diet; format: in vivo, male Sprague-Dawley rats; details: po, 336 h, rat, dose .03% of the diet, 2 weeks
Description: Inhibition of cholesterol absorption was determined by feeding male Sprague-Dawley rats, weighing 150-170 g, a 1% cholesterol:0.5% cholic acid diet for 2 weeks. The diet also contained compounds being tested at a dose of 0.001, 0.003, 0.01, or 0.03% of the diet. Control rats were fed the same diet without any compound. At the end of the test, the rats were sacrificed by decapitation. Blood was collected, centrifuged at […] for 10 minutes at 4° C.; and the serum was then analyzed for cholesterol and triglycerides enzymatically by the method of Trinder, P., Analyst, 77, 321 (1952) on a Centrifichem 400 analyzer. Livers were removed, a 0.4 g sample was taken from the center of the large lobe, and the sample was subjected to saponification using 25% saturated potassium hydroxide in ethanol. The resulting neutral sterols were extracted with petroleum ether and the extract analyzed for cholesterol. The effectiveness of the compound in inhibiting cholesterol absorption was measured by the lowering of either serum cholesterol or liver cholesterol relative the values for control rats.
Compounds which produced statistically significant inhibition of cholesterol absorption are considered to be active. Liver sterol (LS) and serum sterol (SS) values are expressed as a percentage of control values.

[3] = rat adrenal ACAT, final concentration 5.2 μg/ml, read-out: % Inhibition
[4] = read-out: LS (liver sterol), percentage of control values
[5] = read-out: SS (serum sterol), percentage of control values

Row | SMILES | inhibition at 5.2 µg/mL [1, 3] | response vs control in vivo at 0.03 % [2, 4] | response vs control in vivo at 0.03 % [2, 5] | inhibition at 5.2 µg/mL [1]
1 | COc1ccccc1CN(Cc1ccccc1F)C(=O)Nc1ccc(C)cc1C [1-(2-Fluorobenzyl)-1-(2-methoxybenzyl)-3-(2,4-dimethylphenyl)urea] | 41.5% | 20% | 45% | –
2 | CCCCCCCN(Cc1ccco1)C(=O)Nc1cc(C)c(C)cc1C [1-(2-Furanylmethyl)-1-heptyl-3-(2,4,5-trimethylphenyl)urea] | 93.8% | 38% | 44% | –
3 | CCCCCCCN(Cc1ccco1)C(=O)Nc1c(Cl)cc(Cl)cc1Cl [1-(2-Furanylmethyl)-1-heptyl-3-(2,4,6-trichlorophenyl)urea] | 96.1% | 34% | 37% | –
4 | CC(C)(C)CCN(Cc1cccs1)C(=O)Nc1c(Cl)cc(Cl)cc1Cl [1-(3,3-Dimethylbutyl)-1-(2-thienylmethyl)-3-(2,4,6-trichlorophenyl)urea] | – | 56% | 58% | 90%
5 | CC(C)(C)CCN(Cc1ccc(Cl)cc1)C(=O)Nc1c(Cl)cc(Cl)cc1Cl [1-(3,3-Dimethylbutyl)-1-(4-chlorobenzyl)-3-(2,4,6-trichlorophenyl)urea] | – | 41% | 73% | 90%
6 | Cc1cc(Cl)cc(C)c1NC(=O)N(CCC(C)(C)C)Cc1ccc(Cl)cc1 [1-(3,3-Dimethylbutyl)-1-(4-chlorobenzyl)-3-(4-chloro-2,6-dimethylphenyl)urea] | – | 25% | 46% | 90%
7 | Cc1cc(Cl)ccc1NC(=O)N(CCC(C)(C)C)Cc1ccc(Cl)cc1 [1-(3,3-Dimethylbutyl)-1-(4-chlorobenzyl)-3-(4-chloro-2-methylphenyl)urea] | – | 60% | 50% | 90%
8 | Cc1cc(NC(=O)N(CCC(C)(C)C)Cc2ccccc2)c(C)cc1Cl [1-(3,3-Dimethylbutyl)-1-(benzyl)-3-(4-chloro-2,5-dimethylphenyl)urea] | – | 30% | 55% | 90%
9 | CC(C)(C)CCN(Cc1ccc(CC(C)(C)C)cc1)C(=O)Nc1c(Cl)cc(Cl)cc1Cl [1-(3,3-Dimethylbutyl)-1-[4-(2,2-dimethylpropyl)benzyl]-3-(2,4,6-trichlorophenyl)urea] | – | 15% | 32% | 90%
10 | CC(C)(C)CCN(Cc1ccc(CC(C)(C)C)cc1)C(=O)Nc1ccc(F)cc1F [1-(3,3-Dimethylbutyl)-1-[4-(2,2-dimethylpropyl)benzyl]-3-(2,4-difluorophenyl)urea] | – | 19% | 35% | 90%
11 | Cc1cc(Cl)cc(C)c1NC(=O)N(CCC(C)(C)C)Cc1ccc(CC(C)(C)C)cc1 [1-(3,3-Dimethylbutyl)-1-[4-(2,2-dimethylpropyl)benzyl]-3-(4-chloro-2,6-dimethylphenyl)urea] | – | 11% | 31% | 90%
12 | Cc1cc(Cl)ccc1NC(=O)N(CCC(C)(C)C)Cc1ccc(CC(C)(C)C)cc1 [1-(3,3-Dimethylbutyl)-1-[4-(2,2-dimethylpropyl)benzyl]-3-(4-chloro-2-methylphenyl)urea] | – | 20% | 51% | 90%
13 | CCCCOc1ccc(CN(CCC(C)(C)C)C(=O)Nc2c(Cl)cc(Cl)cc2Cl)cc1 [1-(3,3-Dimethylbutyl)-1-[4-(n-butoxy)benzyl]-3-(2,4,6-trichlorophenyl)urea] | – | 20% | 52% | 90%
14 | CCCCOc1ccc(CN(CCC(C)(C)C)C(=O)Nc2ccc(F)cc2F)cc1 [1-(3,3-Dimethylbutyl)-1-[4-(n-butoxy)benzyl]-3-(2,4-difluorophenyl)urea] | – | 32% | 42% | 90%
15 | CCCCOc1ccc(CN(CCC(C)(C)C)C(=O)Nc2ccc(Cl)cc2C)cc1 [1-(3,3-Dimethylbutyl)-1-[4-(n-butoxy)benzyl]-3-(4-chloro-2-methylphenyl)urea] | – | 22% | 61% | 90%
16 | CCCCc1ccc(CN(CCC(C)(C)C)C(=O)Nc2c(Cl)cc(Cl)cc2Cl)cc1 [1-(3,3-Dimethylbutyl)-1-[4-(n-butyl)benzyl]-3-(2,4,6-trichlorophenyl)urea] | – | 13% | 37% | 90%
17 | CCCCc1ccc(CN(CCC(C)(C)C)C(=O)Nc2ccc(F)cc2F)cc1 [1-(3,3-Dimethylbutyl)-1-[4-(n-butyl)benzyl]-3-(2,4-difluorophenyl)urea] | – | 30% | 39% | 90%
18 | CCCCc1ccc(CN(CCC(C)(C)C)C(=O)Nc2c(C)cc(Cl)cc2C)cc1 [1-(3,3-Dimethylbutyl)-1-[4-(n-butyl)benzyl]-3-(4-chloro-2,6-dimethylphenyl)urea] | – | 12% | 28% | 90%
19 | CCCCc1ccc(CN(CCC(C)(C)C)C(=O)Nc2ccc(Cl)cc2C)cc1 [1-(3,3-Dimethylbutyl)-1-[4-(n-butyl)benzyl]-3-(4-chloro-2-methylphenyl)urea] | 90.5% | 13% | 46% | –
20 | CC(C)(C)CCN(Cc1ccccc1)C(=O)Nc1ccc(F)cc1F [1-(3,3-Dimethylbutyl)-1-benzyl-3-(2,4-difluorophenyl)urea] | – | 70% | 71% | 90%
21 | Cc1cc(Cl)ccc1NC(=O)N(CCC(C)(C)C)Cc1ccccc1 [1-(3,3-Dimethylbutyl)-1-benzyl-3-(4-chloro-2-methylphenyl)urea] | – | 51% | 64% | 90%
22 | Cc1ccc(NC(=O)N(Cc2ccc(C)c(C)c2)Cc2ccccc2Cl)c(C)c1 [1-(3,4-Dimethylbenzyl)-1-(2-chlorobenzyl)-3-(2,4-dimethylphenyl)urea] | 92.9% | 15% | 44% | –
23 | CCCCc1ccc(CN(CCCCCCOS(C)(=O)=O)C(=O)Nc2ccc(Cl)cc2C)cc1 [1-[(4-Butylphenyl)methyl]-3-(4-chloro-2-methylphenyl)-1-[6-[(methylsulfonyl)oxy]hexyl]urea] | – | – | – | 90%
24 | CCCCCCCN(Cc1ccc(CCCC)cc1)C(=O)Nc1c(F)cc(F)cc1F [1-[(4-butylphenyl)methyl]-1-(n-heptyl)-3-[2,4,6-trifluorophenyl]urea] | – | – | – | 90%
25 | CCCCc1ccc(CN(CCC(C)(C)C)C(=O)Nc2c(F)cc(F)cc2F)cc1 [1-[(4-butylphenyl)methyl]-1-[3,3-dimethylbutyl]-3-[2,4,6-trifluorophenyl]urea] | – | – | – | 90%

Reference: patent publication US4623662A, “Antiatherosclerotic ureas and thioureas” (American Cyanamid Company, priority 1985, dated 1986)
